In EP2697230B1, “COMPOUNDS FOR THE TREATMENT OF HEPATITIS C” (priority 2011, dated 2012) one finds EC50 data, which are given here for 49 compounds.

Like-named read-outs stand apart in the source and are kept apart here.

This assay has as its system HCV pseudoparticles, genotype 1a HCV E1 and E2 envelope (H77C isolate). As to the kind of experiment: HCV pseudoparticle infection assay (luciferase reporter, Huh7 cells). The format is cell-based. In general terms: In a reporter assay the amount or activity of a reporter protein is the signal.
[1] abbreviates: Hepatitis C virus, Huh-7, 48 h, read-out: EC50 (nM) 1a (H77C), class symbol, HCV pseudoparticles genotype 1a (H77C), luciferase 2 days after infection.
The mark [2] stands for this setting: Hepatitis C virus, Huh-7, 48 h, read-out: EC50 (nM) 1a (H77C), numeric value, HCV pseudoparticles genotype 1a (H77C), luciferase 2 days after infection.
Setting [3] is: class symbol, HCV pseudoparticles genotype 1a (H77C), luciferase 2 days after infection, read-out: EC50 (nM) 1a (H77C).
[4] abbreviates: numeric value, HCV pseudoparticles genotype 1a (H77C), luciferase 2 days after infection, read-out: EC50 (nM) 1a (H77C).

As for `CC(C)(C)OC(=O)N1CCCCOc2ccc(cc2)CNc2nc(nc(OCC(F)(F)F)n2)Nc2ccc(cc2)C(=O)NCCC1` [Example 4026], the EC50 (as a rule, the concentration giving half of the maximal effect) under setting [1] fell in the range of 0.1 to 100 nM.
Regarding `CN1CCCN(C)CCCN(C)C(=O)c2ccc(cc2)Nc2nc(nc(OCC(F)(F)F)n2)Nc2ccc(cc2)C(=O)N(C)CCC1` [Example 0024], the EC50 is, setting by setting: under setting [1], 1000 to 5000 nM; under setting [2], 16300 nM.
Consider `CC(C)N1CCCNC(=O)c2ccc(cc2)Nc2nc(nc(OCC(F)(F)F)n2)NCc2ccc(cc2)OCCC1` [Example 6025], for which, under setting [1], the concentration giving a half-maximal response (EC50) was in the range of 0.1 to 100 nM.
On the same count and under the same terms, to `CCC(=O)N1CCCCNC(=O)c2ccc(cc2)Nc2nc(nc(OCC(F)(F)F)n2)NCc2ccc(cc2)OCC1` [Example 4003] belongs 0.1 to 100 nM; to `O=C1NCCCCCNc2cccc(c2)C2(CC2)Nc2nc(nc(OCC(F)(F)F)n2)Nc2ccc1cc2` [Example 3001], 0.1 to 100 nM; to `CNC(=O)N1CCCCNC(=O)c2ccc(cc2)Nc2nc(nc(OCC(F)(F)F)n2)NC2(CC2)c2ccc(cc2)OCCC1` [Example 5004], 0.1 to 100 nM.
Take `CCCOC(=O)N1CCCCCCCCNc2nc(nc(OCC(F)(F)F)n2)Nc2ccc(cc2)C(=O)NCCC1` [Example 9004]: the concentration giving a half-maximal response (EC50) under setting [1] was 0.1 to 100 nM.
Still for that read-out and setting: to `CC(C)C(=O)N1CCCCNC(=O)c2ccc(cc2)Nc2nc(nc(OCC(F)(F)F)n2)NCc2ccc(cc2)OCC1` [Example 4004] belongs 0.1 to 100 nM.
The same measure, in the same setting: to `CNC(=O)N1CCCCCCCCNc2nc(nc(OCC(F)(F)F)n2)Nc2ccc(cc2)C(=O)NCCC1` [Example 9006] belongs 0.1 to 100 nM.
Same read-out and setting: to `CC(C)NC(=O)N1CCCOc2ccc(cc2)CNc2nc(nc(OCC(F)(F)F)n2)Nc2ccc(cc2)C(=O)NCC(C)(C)C1` [Example 6037] belongs 0.1 to 100 nM.
As for `O=C1NCc2ccc(cc2)Nc2nc(nc(OCC(F)(F)F)n2)NCc2cccc(c2)CNC(=O)Nc2cccc(c2)N1` [Example 0052], the EC50 under setting [1] was in the range of 100 to 1000 nM.
With `CC(C)NC(=O)N1CCCCOc2ccc(cc2)CNc2nc(nc(OCC(F)(F)F)n2)Nc2ccc(cc2)C(=O)NCCC1` [Example 4032], the EC50 under setting [1] was 0.1 to 100 nM.
On the same count and under the same terms, to `O=C1NS(=O)(=O)C/C=C/CCCOc2ccc(cc2)CNc2nc(nc(OCC(F)(F)F)n2)Nc2ccc1cc2` [Example 3005] belongs 1000 to 5000 nM; to `O=C1NCCCCCCNC(=O)c2ccc(cc2)Nc2nc(nc(OCC(F)(F)F)n2)NCc2ccc1cc2` [Example 0032], 100 to 1000 nM; to `O=C1NCCCCCCNC(=O)NCc2cccc(c2)CNc2nc(nc(OCC(F)(F)F)n2)Nc2ccc(cc2)CN1` [Example 0056], 100 to 1000 nM.
The same measure, in the same setting: to `O=C1CNC(=O)c2ccc(cc2)Nc2nc(nc(OCC(F)(F)F)n2)NCc2ccc(cc2)NC(=O)CN1` [Example 3002] belongs 100 to 1000 nM.
The same measure, in the same setting: to `CC1(C)CNC(=O)c2ccc(cc2)Nc2nc(nc(OCC(F)(F)F)n2)NCc2ccc(cc2)OCCCN(C(=O)NC(C)(C)C)C1` [Example 6031] belongs 0.1 to 100 nM; to `CC(C)(C)OC(=O)N1CCCCNC(=O)c2ccc(cc2)Nc2nc(nc(OCC(F)(F)F)n2)NCc2ccc(cc2)OCC1` [Example 4016], 0.1 to 100 nM; to `CC(C)(C)NC(=O)N1CCCCOc2ccc(cc2)CNc2nc(nc(OCC(F)(F)F)n2)Nc2ccc(cc2)C(=O)NCCC1` [Example 4034], 0.1 to 100 nM.
In the case of `CNC(=O)N1CCCCOc2ccc(cc2)CNc2nc(nc(OCC(F)(F)F)n2)Nc2ccc(cc2)C(=O)NCCC1` [Example 4030], the EC50 under setting [1] lay in the range of 0.1 to 100 nM.
Still for that read-out and setting: to `CC(C)C(=O)N1CCCCOc2ccc(cc2)CNc2nc(nc(OCC(F)(F)F)n2)Nc2ccc(cc2)C(=O)NCCC1` [Example 4020] belongs 0.1 to 100 nM.
Consider `CC(C)(C)OC(=O)N1CCCOc2ccc(cc2)CNc2nc(nc(OCC(F)(F)F)n2)Nc2ccc(cc2)C(=O)NCC1` [Example 6002], for which the EC50 under setting [1] lay within 0.1 to 100 nM.
On the same count and under the same terms, to `CCOC(=O)N1CCCCOc2ccc(cc2)CNc2nc(nc(OCC(F)(F)F)n2)Nc2ccc(cc2)C(=O)NCCC1` [Example 4024] belongs 0.1 to 100 nM.
On to `O=C1CNC(=O)c2ccc(cc2)Nc2nc(nc(OCC(F)(F)F)n2)NCc2ccc(cc2)OCC=CCS(=O)(=O)N1` [Example 3007], for which the EC50 under setting [1] lay in the range of 100 to 1000 nM and the EC50 under setting [2] was found to be 557 nM.
`CC(=O)N1CCCCNC(=O)c2ccc(cc2)Nc2nc(nc(OCC(F)(F)F)n2)NCc2ccc(cc2)OCC1` [Example 4002]: the EC50 by setting is: under setting [1], 100 to 1000 nM; under setting [2], 105 nM.
Take `CC1(C)NC(=O)NCc2ccc(cc2)Nc2nc(nc(OCC(F)(F)F)n2)NCc2cccc(c2)CNC(=O)NC(C)(C)c2cccc1c2` [Example 0058]: the EC50 under setting [1] lay within 100 to 1000 nM.
Same read-out and setting: to `CCNC(=O)N1CCCOc2ccc(cc2)CNc2nc(nc(OCC(F)(F)F)n2)Nc2ccc(cc2)C(=O)NCC(C)(C)C1` [Example 6028] belongs 0.1 to 100 nM.
Take `O=C1NCCCCNC(=O)C2(CC2)Nc2nc(nc(OCC(F)(F)F)n2)Nc2ccc1cc2` [Example 0006]: under setting [3], the EC50 lay within 1000 to 5000 nM.
Consider `CC(C)(C)NC(=O)N1CCCCNC(=O)c2ccc(cc2)Nc2nc(nc(OCC(F)(F)F)n2)NCc2ccc(cc2)OCC1` [Example 4009], for which the EC50 under setting [1] fell in the range of 0.1 to 100 nM and the EC50 under setting [2] was found to be 8.47 nM.
Regarding `CN1CCCNC(=O)c2ccc(cc2)Nc2nc(nc(OCC(F)(F)F)n2)NCc2ccc(cc2)OCCC1` [Example 6018], the EC50 under setting [1] lay within 0.1 to 100 nM.
On the same count and under the same terms, to `O=C1CNC(=O)CNC(=O)c2ccc(cc2)Nc2nc(nc(OCC(F)(F)F)n2)NCc2ccc(cc2)NC(=O)CN1` [Example 3003] belongs 100 to 1000 nM; to `O=C1CCCC(=O)NCc2ccc(cc2)Nc2nc(nc(OCC(F)(F)F)n2)NCc2ccc(cc2)CN1` [Example 0061], 100 to 1000 nM; to `CCCOC(=O)N1CCCNC(=O)c2ccc(cc2)Nc2nc(nc(OCC(F)(F)F)n2)NCc2ccc(cc2)OCCC1` [Example 6016], 0.1 to 100 nM.
On the same count and under the same terms, to `CCC(=O)N1CCCCOc2ccc(cc2)CNc2nc(nc(OCC(F)(F)F)n2)Nc2ccc(cc2)C(=O)NCCC1` [Example 4019] belongs 0.1 to 100 nM.
On the same count and under the same terms, to `O=C1NCCCCNCCOc2ccc(cc2)CNC2=N/C(=N\c3ccc1cc3)N=C(OCC(F)(F)F)N2` [Example 4001, (2E)-5-(2,2,2-trifluoroethoxy)-14-oxa-2,4,6,8,17,22,31-heptaazatetracyclo[22.2.2.2∼10,13∼.1∼3,7∼]hentriaconta-1(26),2,4,7(31),10,12,24,27,29-nonaen-23-one] belongs 0.1 to 100 nM; to `CC1(C)C(=O)NCc2ccc(cc2)CNc2nc(nc(OCC(F)(F)F)n2)Nc2ccc(cc2)CNC1=O` [Example 0071], 100 to 1000 nM.
Take `O=C1NC2CNCC2C(=O)NCCCCCCOc2ccc(cc2)CNc2nc(nc(OCC(F)(F)F)n2)Nc2ccc1cc2` (stereo not shown) [Example 0007]: the EC50 under setting [3] was in the range of 0.1 to 100 nM and the concentration for a half-maximal effect (EC50) under setting [4] came to 8.31 nM.
In the case of `O=C1NCc2ccc(cc2)Nc2nc(nc(OCC(F)(F)F)n2)NCc2cccc(c2)CNC(=O)NC2CCC(CC2)CC2CCC(CC2)N1` [Example 0054], the EC50 was 1000 to 5000 nM under setting [1] and 5210 nM under setting [2].
Turning to `CNC(=O)N1CCCCNC(=O)c2ccc(cc2)Nc2nc(nc(OCC(F)(F)F)n2)NCc2ccc(cc2)OCC1` [Example 4006], the EC50 under setting [1] was in the range of 0.1 to 100 nM.
Still for that read-out and setting: to `CC(C)(C)OC(=O)N1CCCCNC(=O)c2ccc(cc2)Nc2nc(nc(OCC(F)(F)F)n2)NC2(CC2)c2ccc(cc2)OCCC1` [Example 5006] belongs 0.1 to 100 nM.
`O=C1NCCCNCCCCCCCCNc2nc(nc(OCC(F)(F)F)n2)Nc2ccc1cc2` [Example 9001]: the half-maximal effective concentration (EC50) by setting is: under setting [3], 100 to 1000 nM; under setting [4], 243 nM.
Regarding `O=C1NCc2ccc(cc2)CNc2nc(nc(OCC(F)(F)F)n2)Nc2ccc(cc2)CNC(=O)OCCOCCOCCO1` [Example 0067], under setting [1], the EC50 lay within 100 to 1000 nM.
Still for that read-out and setting: to `CC(C)OC(=O)N1CCCCNC(=O)c2ccc(cc2)Nc2nc(nc(OCC(F)(F)F)n2)NCc2ccc(cc2)OCC1` [Example 4015] belongs 0.1 to 100 nM.
Turning to `COCC(=O)N1CCCCNC(=O)c2ccc(cc2)Nc2nc(nc(OCC(F)(F)F)n2)NCc2ccc(cc2)OCC1` [Example 4035], the EC50 is 0.1 to 100 nM under setting [1] and 4.37 nM under setting [2].
For `CNC(=O)N1CCCCNC(=O)c2ccc(cc2)Nc2nc(nc(OCC(F)(F)F)n2)NCc2ccc(cc2)OCCC1` [Example 6021], the EC50 under setting [1] fell in the range of 0.1 to 100 nM.
In the case of `CCN1CCCOc2ccc(cc2)CNc2nc(nc(OCC(F)(F)F)n2)Nc2ccc(cc2)C(=O)NCC(C)(C)C1` [Example 6041], the EC50 under setting [1] was 0.1 to 100 nM.
With `COC(=O)N1CCCNC(=O)c2ccc(cc2)Nc2nc(nc(OCC(F)(F)F)n2)NCc2ccc(cc2)OCCC1` [Example 6014], the EC50 under setting [1] fell in the range of 0.1 to 100 nM and the EC50 under setting [2] is 1.51 nM.
For the compound `COC(=O)N1CCCCNC(=O)c2ccc(cc2)Nc2nc(nc(OCC(F)(F)F)n2)NCc2ccc(cc2)OCC1` [Example 4013], the EC50 under setting [1] lay within 0.1 to 100 nM.
On to `CCCN1CCCNC(=O)c2ccc(cc2)Nc2nc(nc(OCC(F)(F)F)n2)NCc2ccc(cc2)OCCC1` [Example 6027], for which the EC50 under setting [1] lay within 0.1 to 100 nM.
